Measurements published in patent US4599203A, “Multisulfonated naphthalene ureas useful as complement inhibitors” (American Cyanamid Company, priority 1984, dated 1986).
Where a name gives a salt, the structure may show the parent alone.

Assays:
complement system = details: literature report; cited from earlier work
activated human C1 = activated human C1 (Homo sapiens, UniProt P09871); assay: Test Code 026 (C1 inhibitor): protection of fluid phase human C2 from activated human C1 in the presence of C4; type: biochemical; details: serial twofold dilution assay; higher well number indicates higher activity
shunt pathway = assay: Test Code 036 (C-Shunt inhibitor): lysis of fragile human erythrocytes in autologous serum via shunt pathway activated by cobra venom factor; type: cell-based; details: serial twofold dilution assay; higher well number indicates higher activity
Description: An active inhibitor protects C2 from C1 and C4; (ii) Test Code 036 (C-Shunt inhibitor)--In this test human erythrocytes rendered fragile are lysed in autologous serum via the shunt pathway activated by cobra venom factor in the presence of appropriate dilutions of the test compound. Inhibition of the shunt pathway results in failure of lysis; (iii) Cap 50 Test--Here, appropriate amounts of the test compound are added to a pool of guinea pig serum in vitro, after which the complement level is determined in undiluted serum by the serum capillary tube assay of U.S. Pat. No. 3,876,376. The concentration of compound inhibiting 50% is reported; and (iv) Guinea Pig Intraperitoneal Test (GPIP)--Guinea pigs weighing about 300 g are dosed intraperitoneally (i.p.) with 200 mg/kg of the test compound dissolved in saline and adjusted to pH 7-8. Approximately 0.4 ml blood samples, taken by orbital sinus puncture 30 minutes and one hour after injections, are collected directly into centrifuge tubes; 5 ml blood samples, taken by decapitation 2 hours after inJection, are collected directly into diSPo® beakers. The samples were allowed to clot, centrifuged, and the resultant sera were assayed for complement activity using the capillary complement assay. Percent inhibition is calculated by comparison with simultaneous controls. […]

complement = assay: Guinea Pig Intraperitoneal Test (GPIP): serum complement activity after i.p. dosing; type: in vivo; details: 200 mg/kg i.p.; for In vivo Activity Guinea Pigs Intraperitoneal % Lowering, 30 minutes: blood 30 minutes after injection; for In vivo Activity Guinea Pigs Intraperitoneal % Lowering, 60 minutes: blood 60 minutes after injection; for In vivo Activity Guinea Pigs Intraperitoneal % Lowering, 120 minutes: blood 120 minutes after injection
Description: An active inhibitor protects C2 from C1 and C4; (ii) Test Code 036 (C-Shunt inhibitor)--In this test human erythrocytes rendered fragile are lysed in autologous serum via the shunt pathway activated by cobra venom factor in the presence of appropriate dilutions of the test compound. Inhibition of the shunt pathway results in failure of lysis; (iii) Cap 50 Test--Here, appropriate amounts of the test compound are added to a pool of guinea pig serum in vitro, after which the complement level is determined in undiluted serum by the serum capillary tube assay of U.S. Pat. No. 3,876,376. The concentration of compound inhibiting 50% is reported; and (iv) Guinea Pig Intraperitoneal Test (GPIP)--Guinea pigs weighing about 300 g are dosed intraperitoneally (i.p.) with 200 mg/kg of the test compound dissolved in saline and adjusted to pH 7-8. Approximately 0.4 ml blood samples, taken by orbital sinus puncture 30 minutes and one hour after injections, are collected directly into centrifuge tubes; 5 ml blood samples, taken by decapitation 2 hours after inJection, are collected directly into diSPo® beakers. The samples were allowed to clot, centrifuged, and the resultant sera were assayed for complement activity using the capillary complement assay. Percent inhibition is calculated by comparison with simultaneous controls. The results of the GPIP appear in Table I together with results of Test Code 026, 036 and Cap 50.

[1] = test system: hereditary angioneurotic edema; details: literature report; cited from earlier work

## heparin
Complement system
  anti-complementary effect: anti-complementary effect

## O=C(Nc1ccc(S(=O)(=O)[O-])c2ccccc12)Nc1ccc(S(=O)(=O)[O-])c2ccccc12.[Na+].[Na+] [4,4'-Ureylenedi-1-naphthalenesulfonic acid, disodium salt]
Activated human C1
  In vitro Activity C1 026 Wells: +2 Wells

## O=C(Nc1cc(S(=O)(=O)[O-])c2cc(S(=O)(=O)[O-])cc(S(=O)(=O)[O-])c2c1)Nc1cc(S(=O)(=O)[O-])c2cc(S(=O)(=O)[O-])cc(S(=O)(=O)[O-])c2c1.[Na+].[Na+].[Na+].[Na+].[Na+].[Na+] [7,7'-Ureylenedi-1,3,5-naphthalenetrisulfonic acid, hexasodium salt]
Activated human C1
  In vitro Activity C1 026 Wells: +6 Wells
Shunt pathway
  In vitro Activity C-Shunt Inhibition 036 Wells: +1 Wells

## O=C(Nc1cc(S(=O)(=O)[O-])cc2cc(S(=O)(=O)[O-])cc(S(=O)(=O)[O-])c12)Nc1cc(S(=O)(=O)[O-])cc2cc(S(=O)(=O)[O-])cc(S(=O)(=O)[O-])c12.[Na+].[Na+].[Na+].[Na+].[Na+].[Na+] [8,8'-Ureylenedi-1,3,6-naphthalenetrisulfonic acid, hexasodium salt]
Activated human C1
  In vitro Activity C1 026 Wells: +5 Wells
complement
  In vivo Activity Guinea Pigs Intraperitoneal % Lowering, 30 minutes: 25%
  In vivo Activity Guinea Pigs Intraperitoneal % Lowering, 60 minutes: 61%
  In vivo Activity Guinea Pigs Intraperitoneal % Lowering, 120 minutes: 65%

## NC[C@H]1CC[C@H](C(=O)O)CC1 [tranexamic acid]
[1]
  treatment of hereditary angioneurotic edema: used with success

## NCCCCCC(=O)O [epsilon-aminocaproic acid]
[1]
  treatment of hereditary angioneurotic edema: used with success

## O=C(Nc1cc(S(=O)(=O)[O-])cc2ccc(S(=O)(=O)[O-])cc12)Nc1cc(S(=O)(=O)[O-])cc2ccc(S(=O)(=O)[O-])cc12.[Na+].[Na+].[Na+].[Na+] [4,4'-Ureylenedi-2,6-naphthalenedisulfonic acid, tetrasodium salt]
Activated human C1
  In vitro Activity C1 026 Wells: +2 Wells

## Nc1ccc2cc(S(=O)(=O)[O-])cc(O)c2c1N=Nc1ccc(NC(=O)Nc2ccc(N=Nc3c(N)ccc4cc(S(=O)(=O)[O-])cc(O)c34)c(S(=O)(=O)[O-])c2)cc1S(=O)(=O)[O-].[Na+].[Na+].[Na+].[Na+] [chlorazol fast pink, 3,3'-ureylenebis[6-(2-amino-8-hydroxy-6-sulfo-1-naphthylazo)benzenesulfonic acid], tetrasodium salt]
Complement system
  anti-complementary effect: anti-complementary effect

## O=C(Nc1cc(S(=O)(=O)O)cc2cc(S(=O)(=O)O)cc(OS(=O)(=O)c3ccccc3)c12)Nc1cc(S(=O)(=O)O)cc2cc(S(=O)(=O)O)cc(OS(=O)(=O)c3ccccc3)c12 [4,4'-Ureylenebis(5-hydroxy-2,7-naphthalenedisulfonic acid), tetrasodium salt dibenzenesulfonate]
Activated human C1
  In vitro Activity C1 026 Wells: +3 Wells

## O=C(Nc1cc2c(O)cc(S(=O)(=O)[O-])cc2cc1S(=O)(=O)[O-])Nc1cc2c(O)cc(S(=O)(=O)[O-])cc2cc1S(=O)(=O)[O-].[Na+].[Na+].[Na+].[Na+] [3,3'-Ureylenebis(5-hydroxy-2,7-naphthalenedisulfonic acid), tetrasodium salt]
Activated human C1
  In vitro Activity C1 026 Wells: +4 Wells
complement
  In vivo Activity Guinea Pigs Intraperitoneal % Lowering, 30 minutes: 4%
  In vivo Activity Guinea Pigs Intraperitoneal % Lowering, 60 minutes: 1%
  In vivo Activity Guinea Pigs Intraperitoneal % Lowering, 120 minutes: 28%

## O=C(Nc1ccc2cc(S(=O)(=O)O)cc(O)c2c1)Nc1ccc2cc(S(=O)(=O)O)cc(O)c2c1 [7,7'-ureylenebis(1-hydroxy-3-naphthalenesulfonic acid)]
Activated human C1
  In vitro Activity C1 026 Wells: +2 Wells

## O=C(Nc1ccc2c(S(=O)(=O)[O-])cc(S(=O)(=O)[O-])cc2c1)Nc1ccc2c(S(=O)(=O)[O-])cc(S(=O)(=O)[O-])cc2c1.[Na+].[Na+].[Na+].[Na+] [6,6'-Ureylenedi-1,3-naphthalenedisulfonic acid, tetrasodium salt]
Activated human C1
  In vitro Activity C1 026 Wells: +3 Wells

## O=C(Nc1ccc2c(O)cc(S(=O)(=O)O)cc2c1)Nc1ccc2c(O)cc(S(=O)(=O)O)cc2c1 [6,6'-ureylenebis(1-hydroxy-3-naphthalenesulfonic acid)]
Activated human C1
  In vitro Activity C1 026 Wells: +1 Wells

## O=C(Nc1cc(S(=O)(=O)[O-])c2cc([N+](=O)[O-])cc(S(=O)(=O)[O-])c2c1)Nc1cc(S(=O)(=O)[O-])c2cc([N+](=O)[O-])cc(S(=O)(=O)[O-])c2c1.[Na+].[Na+].[Na+].[Na+] [3,3'-Ureylenebis(7-nitro-1,5-naphthalenedisulfonic acid), tetrasodium salt]
Activated human C1
  In vitro Activity C1 026 Wells: +3 Wells

## O=C(Nc1ccc(S(=O)(=O)[O-])c2cc(S(=O)(=O)[O-])cc(S(=O)(=O)[O-])c12)Nc1ccc(S(=O)(=O)[O-])c2cc(S(=O)(=O)[O-])cc(S(=O)(=O)[O-])c12.[Na+].[Na+].[Na+].[Na+].[Na+].[Na+] [8,8'-Ureylenedi-1,3,5-naphthalenetrisulfonic acid, hexasodium salt]
complement
  In vivo Activity Guinea Pigs Intraperitoneal % Lowering, 30 minutes: 92%
  In vivo Activity Guinea Pigs Intraperitoneal % Lowering, 60 minutes: 92%
  In vivo Activity Guinea Pigs Intraperitoneal % Lowering, 120 minutes: 94%

## O=C(Nc1cc2ccc(S(=O)(=O)[O-])cc2cc1S(=O)(=O)[O-])Nc1cc2ccc(S(=O)(=O)[O-])cc2cc1S(=O)(=O)[O-].[Na+].[Na+].[Na+].[Na+] [3,3'-Ureylenedi-2,7-naphthalenedisulfonic acid, tetrasodium salt]
Activated human C1
  In vitro Activity C1 026 Wells: +3 Wells

## O=S(=O)([O-])c1cc(NC(=S)Nc2cc(S(=O)(=O)[O-])cc3cc(S(=O)(=O)[O-])cc(S(=O)(=O)[O-])c23)c2c(S(=O)(=O)[O-])cc(S(=O)(=O)[O-])cc2c1.[Na+].[Na+].[Na+].[Na+].[Na+].[Na+] [8,8'-(2-Thioureylene)di-1,3,6-naphthalenetrisulfonic acid, hexasodium salt]
Activated human C1
  In vitro Activity C1 026 Wells: +5 Wells
complement
  In vivo Activity Guinea Pigs Intraperitoneal % Lowering, 30 minutes: 41%
  In vivo Activity Guinea Pigs Intraperitoneal % Lowering, 60 minutes: 20%
  In vivo Activity Guinea Pigs Intraperitoneal % Lowering, 120 minutes: 42%

## O=C(Nc1ccc(S(=O)(=O)[O-])c2ccc(S(=O)(=O)[O-])cc12)Nc1ccc(S(=O)(=O)[O-])c2ccc(S(=O)(=O)[O-])cc12.[Na+].[Na+].[Na+].[Na+] [4,4'-Ureylenedi-1,6-naphthalenedisulfonic acid, tetrasodium salt]
Activated human C1
  In vitro Activity C1 026 Wells: +3 Wells

## O=C(Nc1cc(S(=O)(=O)[O-])cc2cc(S(=O)(=O)[O-])ccc12)Nc1cc(S(=O)(=O)[O-])cc2cc(S(=O)(=O)[O-])ccc12.[Na+].[Na+].[Na+].[Na+] [4,4'-Ureylenedi-2,7-naphthalenedisulfonic acid, tetrasodium salt]
Activated human C1
  In vitro Activity C1 026 Wells: +3 Wells

## O=C(Nc1cc(S(=O)(=O)[O-])cc2cccc(S(=O)(=O)[O-])c12)Nc1cc(S(=O)(=O)[O-])cc2cccc(S(=O)(=O)[O-])c12.[Na+].[Na+].[Na+].[Na+] [8,8'-Ureylenedi-1,6-naphthalenedisulfonic acid, tetrasodium salt]
Activated human C1
  In vitro Activity C1 026 Wells: +3 Wells
